Like-named read-outs stand apart in the source and are kept apart here.
Key:
human hepatocytes = settings: 72 h, 100 μM
Method: Plateable and inducible cryopreserved human hepatocytes were thawed and isolated in human hepatocyte thawing medium. […] After attachment (4 hours), the medium was changed to fresh hepatocyte culture medium for overnight cell recovery. […] A positive control (100 μM chlorpromazine) was treated in parallel.

CYP2C9 [1] = target: T1, CYP2C9 (Homo sapiens, UniProt P11712); settings: 4 μM, pH 7.4
T1 sequence (P11712 whole entry): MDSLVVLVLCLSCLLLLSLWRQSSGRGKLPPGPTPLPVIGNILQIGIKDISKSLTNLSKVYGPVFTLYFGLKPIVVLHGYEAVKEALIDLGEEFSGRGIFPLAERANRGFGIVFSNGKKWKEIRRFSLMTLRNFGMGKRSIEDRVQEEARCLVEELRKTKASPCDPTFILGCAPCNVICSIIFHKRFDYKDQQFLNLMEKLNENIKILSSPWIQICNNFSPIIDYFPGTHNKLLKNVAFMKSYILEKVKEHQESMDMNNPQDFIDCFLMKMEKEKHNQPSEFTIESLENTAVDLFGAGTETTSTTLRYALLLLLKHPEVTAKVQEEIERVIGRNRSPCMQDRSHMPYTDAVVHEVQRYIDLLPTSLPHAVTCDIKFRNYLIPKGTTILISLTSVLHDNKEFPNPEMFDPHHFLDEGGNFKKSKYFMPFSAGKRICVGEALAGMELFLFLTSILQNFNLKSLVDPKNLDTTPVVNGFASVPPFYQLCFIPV

hrCYP2C9 = hrCYP2C9 (Homo sapiens, UniProt P11712); settings: 20 min, 6 μM, pH 7.4
hrCYP2C9, sequence (P11712 whole entry): as above

hrCYP3A4 = hrCYP3A4 (Homo sapiens, UniProt P08684); assay: Formation of CYP probe metabolite by hrCYP3A4; assay type: in vitro ADME; settings: hrCYP3A4 vs Negative Control, QC criterion ≥2
hrCYP3A4, sequence (P08684 whole entry): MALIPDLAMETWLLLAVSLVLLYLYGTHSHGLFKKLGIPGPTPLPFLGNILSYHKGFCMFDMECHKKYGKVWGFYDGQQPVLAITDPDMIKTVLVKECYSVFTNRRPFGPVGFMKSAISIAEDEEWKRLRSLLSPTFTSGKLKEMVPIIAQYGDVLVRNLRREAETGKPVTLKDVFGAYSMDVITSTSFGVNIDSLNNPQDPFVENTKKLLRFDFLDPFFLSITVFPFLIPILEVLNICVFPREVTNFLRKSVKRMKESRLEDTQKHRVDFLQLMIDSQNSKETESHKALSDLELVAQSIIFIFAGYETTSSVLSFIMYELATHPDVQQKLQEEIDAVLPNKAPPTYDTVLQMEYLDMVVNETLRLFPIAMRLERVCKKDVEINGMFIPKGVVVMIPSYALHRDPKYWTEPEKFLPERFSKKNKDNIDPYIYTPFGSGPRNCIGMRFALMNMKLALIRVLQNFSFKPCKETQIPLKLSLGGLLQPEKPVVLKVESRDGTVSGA

CYP2C9 [2] = target: T1, CYP2C9; assay: Inhibition of CYP2C9 in human liver microsomes; settings: pH 7.4
CYP2B6 = target: T2, CYP2B6 (Homo sapiens, UniProt P20813); assay: in vitro; settings: microsomes, pH 7.4
T2 sequence (P20813 1-491): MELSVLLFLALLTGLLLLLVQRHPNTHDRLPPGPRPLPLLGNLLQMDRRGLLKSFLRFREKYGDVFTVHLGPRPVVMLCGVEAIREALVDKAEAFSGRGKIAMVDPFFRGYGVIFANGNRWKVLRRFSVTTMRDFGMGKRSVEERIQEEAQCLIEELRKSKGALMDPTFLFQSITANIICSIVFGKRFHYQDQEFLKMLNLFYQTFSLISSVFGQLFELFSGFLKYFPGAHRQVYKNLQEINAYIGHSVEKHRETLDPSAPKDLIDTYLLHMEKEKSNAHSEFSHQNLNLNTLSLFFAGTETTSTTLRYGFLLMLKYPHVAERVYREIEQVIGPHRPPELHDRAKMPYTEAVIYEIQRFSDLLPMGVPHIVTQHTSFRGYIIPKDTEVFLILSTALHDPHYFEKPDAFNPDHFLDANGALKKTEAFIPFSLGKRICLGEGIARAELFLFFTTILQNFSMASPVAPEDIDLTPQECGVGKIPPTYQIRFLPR

Compound: CN(C)CCCN1c2ccccc2Sc2ccc(Cl)cc21 [Chlorpromazine, chlorpromazine]
- % MTS absorbance relative to vehicle control (human hepatocytes): 24.3%
- Formazan absorbance, mean (human hepatocytes): 0.160

Compound: O=C(O)Cc1ccccc1Nc1c(Cl)cccc1Cl [Diclofenac]
- Formation Rate Ratio (CYP2C9 [1]): 7.7
- Formation Rate (hrCYP2C9): 0 pmol metabolite/min/mg Supersome protein
- Measured Metabolite (hrCYP2C9): 0 µM
- Formation Rate (hrCYP2C9; human): 845 pmol metabolite/min/mg Supersome protein
- Measured Metabolite (hrCYP2C9; human): 1.56 µM

Compound: Cc1ncc2n1-c1ccc(Cl)cc1C(c1ccccc1F)=NC2 [Midazolam]
- Formation Rate Ratio (hrCYP3A4; Midazolam (2 μM)): >>2

Compound: Nc1ccc(S(=O)(=O)Nc2ccnn2-c2ccccc2)cc1 [Sulfaphenazole]
- activity at 3.33 µM (CYP2C9 [2]): 23.8%
- activity at 10 µM (CYP2C9 [2]): 14.9%

Compound: C[C@]12CC[C@H]3[C@@H](CCC4=CC(=O)CC[C@@]43C)[C@@H]1CC[C@@H]2O [Testosterone]
- Formation Rate Ratio (hrCYP3A4; Testosterone (50 μM)): >>2

Compound: S=P(N1CC1)(N1CC1)N1CC1 [Thio-TEPA]
- activity at 3.33 µM (CYP2B6): 66.9%
- activity at 10 µM (CYP2B6): 44.1%
- activity at 30 µM (CYP2B6): 26.7%
